Experimental data from patent publication US7026505B2, “Method of treating tinnitus” (Warner-Lambert Company, priority 2002, dated 2006).
Structures can show the parent of a compound that is named as a salt.

melting point [°C] | SMILES
183 to 185 | CC(C)CC(CN)Cc1noc(=S)[nH]1.Cl (stereo not shown)
196 to 199 | CS(=O)(=O)NCCC1(CN)CCCCC1.Cl
160 to 170 | CCCC(C(C)C)C(CN)CC(=O)O (stereo not shown) (as salt: HCl)
210 to 212 | Cl.NCC1(Cc2noc(=S)[nH]2)CCCCC1
